Six compounds from patent US20040048838A1, “Meiosis regulating compounds” (priority 1995, published 2004) can be followed below.

SMILES strings stand for the structures.

For the compound `CC(C)CCC[C@@H](C)[C@H]1CC=C2C3=C(CC[C@@]21C)[C@@]1(C)CC=CCC1CC3` (stereo partly drawn), the melting point (as a rule, the temperature, or range, at which the solid turns liquid) is 104.7 °C.
`C[C@H](CCC(=O)N(C)C)[C@H]1CC=C2C3=C(CC[C@@]21C)[C@@]1(C)CC[C@H](O)C(C)(C)[C@@H]1CC3` yielded a melting point of 192 to 195 °C.
As for `C[C@@H](CCl)CCC[C@@H](C)[C@H]1CC=C2C3=C(CC[C@@]21C)[C@@]1(C)CC[C@H](O)C(C)(C)[C@@H]1CC3`, the figure is 145 to 145.5 °C; as for `C[C@@H](CO)CCC[C@@H](C)[C@H]1CC=C2C3=C(CC[C@@]21C)[C@@]1(C)CC[C@H](O)C(C)(C)[C@@H]1CC3`, 180 to 181 °C.
The value for `CC(C)CCC[C@@H](C)[C@H]1[C@@H](O)C[C@H]2C3=CC=C4C(C)(C)[C@@H](O)CC[C@]4(C)[C@H]3CC[C@]12C` was 171 to 173 °C; that for `C[C@@H](CI)CCC[C@@H](C)[C@H]1CC=C2C3=C(CC[C@@]21C)[C@@]1(C)CC[C@H](O)C(C)(C)[C@@H]1CC3` was 148 °C.
